Laboratory results from patent US7829114B2, “Capsules containing aqueous fill compositions stabilized with derivatized cyclodextrin” (CyDex Pharmaceuticals, Inc., priority 2002, dated 2010).
Read-outs that look alike come from different tables or passages of the source.

Columns and labels:
Type in all cases: physicochemical
[1] = H.S.I.T. on starch capsule; conditions: for content in fill composition for an HSIT rating of at least 3: SAE-CD, PVP and water fill, VEGAGEL hard shell capsule
Text: FIG. 3 depicts a chart of the relationship between concentration of SBE cyclodextrin and H.S.I.T. (HALF-SHELL integrity test) rating for HGC (hard gelatin capsule From […]), HGS (hard gelatin capsule from SHIONOGI), HPC (hard hydroxypropyl methylcellulose shell from […]), and HPS (hard hydroxypropyl methylcellulose shell from SHIONOGI), and SSS (soft starch shell […]). The stability obtained was dependent upon the composition of the capsule gel.
FIGS. 10a-10i depict ternary graphs correlating the concentration of SAE-CD, water and PVP in a fill composition to the H.S.I.T. rating of a soft shell capsule exposed to the fill composition. Aqueous fill solutions comprising differing amounts of PVP, SAE-CD and water were prepared. The stability tests were conducted as described below. The capsules described herein were used: SHIONOGI HGC (hard gelatin capsule) (FIG. 10A), […] HPMC hard shell capsule (FIG. 10b), SHIONOGI HPMC hard shell capsule (FIG. 10C), […] HGC (FIG. 10D), VEGAGEL hard shell capsule (FIG. 10E), hydrophilic fill-grade CARDINAL SGC (soft gelatin capsule) (FIG. 10f), lipophilic fill-grade CARDINAL SGC (FIG. 10g), hydrophilic fill-grade BANNER SGC (FIG. 10h), and lipophilic fill-grade BANNER SGC (FIG. 10i). No other shell-stabilizing material(s) was (were) included in the fill compositions evaluated. The results varied according to the capsule used. Stabilized aqueous fill composition-containing capsule formulations can be achieved with each capsule if one or more of the following fill compositions detailed below are used. • 1. […]

[2] = Shell stability on exposure to aqueous fill composition (half-shell integrity test, H.S.I.T.)
Experimental: The same tests were performed on gelatin capsules obtained from CARDINAL HEALTH.
It has been discovered that PEG has a beneficial effect upon the shell-stabilizing property of an aqueous fill composition comprising SAE-CD. FIG. 6a depicts a ternary graph correlating the concentration of SAE-CD, water and PEG in a fill composition to the H.S.I.T. rating of a soft shell capsule exposed to the fill composition. Aqueous fill solutions comprising differing amounts of PEG, SAE-CD and water were prepared. The stability tests were conducted as described below. The HFC soft gelatin capsules described herein were used. For a composition comprising 40% wt. SBE-CD, 40% wt. water and 20% wt. PEG, the shell was stable for greater than 5 days. For a composition comprising 35% wt. SBE-CD, 35% wt. water and 30% wt. PEG, the shell was stable for greater than 5 days. For a composition comprising 18% wt. SBE-CD, 42% wt. water and 40% wt. PEG, the shell was stable for greater than 5 days. Under each of the conditions tested, the control sample excluded SAE-CD, i.e., containing only water and PEG at the indicated concentration, and failed within 24 hours. About the same results were obtained for the HFB (FIG. 6b), LFB (FIG. 7a) and LFC (FIG. 7b) soft gelatin capsules. Increasing the SAE-CD concentration to values higher than those indicated further increases the shelf-life of the shell or provides an HSIT rating of at least 4. Stabilized aqueous fill composition-containing capsule formulations can be achieved with each capsule if the following fill compositions are used.

[3] = as above; conditions: SAE-CD, PVP and water fill; hydrophilic fill-grade CARDINAL SGC
[4] = 40% wt. cyclodextrin derivative in water, HFC
[5] = 50% wt. cyclodextrin derivative in water, HFC
[6] = 55% wt. cyclodextrin derivative in water, HFC
[7] = 60% wt. cyclodextrin derivative in water, HFC

With `O` [Water] the “content in fill composition for an HSIT rating of at least 3” value (from here on “content in fill composition … at least 3”) [1] was “≦64%”, the “content in fill composition for a stabilized capsule formulation” value ([2]; SAE-CD, PEG and water fill, HFC) was “≦50%” and the “content in fill composition … at least 3” value [3] was “≦54%”.
In the case of sulfobutyl ether cyclodextrin [SAE-CD], the “content in fill composition … at least 3” value [1] is reported as “≧6%”, the “stability provided to capsules” value ([1]; SBE concentration of about ≧30% wt., soft starch capsules, FIG. 3) is reported as “at least a one-week stability” and the “content in fill composition for a stabilized capsule formulation” value [2] is reported as “≧18%”. For the same molecule, the “time the shell was stable” value ([2]; 18% wt. SBE-CD, 42% wt. water and 40% wt. PEG, HFC) was “greater than 5 days”, the “time the shell was stable” value ([2]; 35% wt. SBE-CD, 35% wt. water and 30% wt. PEG, HFC) was “greater than 5 days” and the “time the shell was stable” value ([2]; 40% wt. SBE-CD, 40% wt. water and 20% wt. PEG, HFC) was “greater than 5 days”. The “Increase in shell size” value [2, 4] was 3 × original, the Observations [2, 4] was “deformed” and the Time for failure [2, 4] was 4 days. The “Increase in shell size” value [2, 5] was 2 × original, the Observations [2, 5] was “shape intact” and the Time for failure [2, 5] was 7 days. The “Increase in shell size” value [2, 6] was “No change”, the Observations [2, 6] was “No deformities” and the Time for failure [2, 6] was “≧14 days”. For the same molecule, the “Increase in shell size” value [2, 7] was “no change”, the Observations [2, 7] was “no change” and the Time for failure [2, 7] was over 21 days. The “content in fill composition … at least 3” value [3] was “≧6%”.
